From PubChem BioAssay AID248 (DTP/NCI, 2004) come the findings set out here.

Values joined by “and” are separate entries in the source; they are usually repeats but may differ in a detail not shown here. Equal entries are not always repeated. Inconclusive results and toxic doses are left out.

The subject of the test is L1210 leukemia ip in BDF1 mice, survival T/C. As to the kind of experiment: NCI In Vivo Anticancer Drug Screen. Data for tumor model L1210 Leukemia (intraperitoneal) in B6D2F1 (BDF1) mice. Particulars: endpoint: mean survival time, higher = longer survival. In a few lines:
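Value reflects the ratio of survival in compound-treated mice to survival in vehicle-treated controls, with both groups carrying the same transplanted tumor.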

[1] abbreviates: dose: 100.0 mg/kg/injection, schedule: Q01DX001 (ip), vehicle: saline with Tween-80.
[2] abbreviates: dose: 200.0 mg/kg/injection, schedule: Q01DX001 (ip), vehicle: saline with Tween-80.
Setting [3] is: dose: 200.0 mg/kg/injection, schedule: Q01DX009 (ip), vehicle: saline with Tween-80.
The mark [4] stands for this setting: dose: 100.0 mg/kg/injection, schedule: Q01DX009 (ip), vehicle: Klucel (hydroxypropylcellulose) (HPC).
Setting [5] is: dose: 100.0 mg/kg/injection, schedule: Q04DX003 (ip), vehicle: saline.
The mark [6] stands for this setting: dose: 200.0 mg/kg/injection, schedule: Q01DX009 (ip), vehicle: Klucel (hydroxypropylcellulose) (HPC).
Where [7] appears, read: dose: 200.0 mg/kg/injection, schedule: Q04DX003 (ip), vehicle: saline.
Where [8] appears, read: dose: 400.0 mg/kg/injection, schedule: Q01DX009 (ip), vehicle: Klucel (hydroxypropylcellulose) (HPC).
[9] abbreviates: dose: 400.0 mg/kg/injection, schedule: Q04DX003 (ip), vehicle: saline.
The mark [10] stands for this setting: dose: 50.0 mg/kg/injection, schedule: Q01DX001 (ip), vehicle: carboxymethylcellulose (CMC).
The mark [11] stands for this setting: dose: 100.0 mg/kg/injection, schedule: Q01DX001 (ip), vehicle: carboxymethylcellulose (CMC).
[12] abbreviates: dose: 200.0 mg/kg/injection, schedule: Q01DX001 (ip), vehicle: carboxymethylcellulose (CMC).
Where [13] appears, read: dose: 400.0 mg/kg/injection, schedule: Q01DX001 (ip), vehicle: carboxymethylcellulose (CMC).
[14] abbreviates: dose: 100.0 mg/kg/injection, schedule: Q01DX009 (ip), vehicle: saline with Tween-80.
Setting [15] is: dose: 100.0 mg/kg/injection, schedule: Q04DX002 (ip), vehicle: saline with Tween-80.
Setting [16] is: dose: 100.0 mg/kg/injection, schedule: Q04DX003 (ip), vehicle: saline with Tween-80.
Where [17] appears, read: dose: 200.0 mg/kg/injection, schedule: Q04DX002 (ip), vehicle: saline with Tween-80.
The mark [18] stands for this setting: dose: 200.0 mg/kg/injection, schedule: Q04DX003 (ip), vehicle: saline with Tween-80.
[19] abbreviates: dose: 400.0 mg/kg/injection, schedule: Q01DX009 (ip), vehicle: saline with Tween-80.
The mark [20] stands for this setting: dose: 400.0 mg/kg/injection, schedule: Q04DX002 (ip), vehicle: saline with Tween-80.
Where [21] appears, read: dose: 400.0 mg/kg/injection, schedule: Q04DX003 (ip), vehicle: saline with Tween-80.

In the case of `CC(=O)Nn1cnc2c(=S)nc[nH]c21`, the T/C is 108 % of control (dose: 20.0 mg/kg/injection, schedule: Q01DX009 (ip), vehicle: saline with Tween-80); 101 % of control under setting [1]; 106 % of control (dose: 177.0 mg/kg/injection, schedule: Q01DX001 (ip), vehicle: saline with Tween-80); 110 % of control under setting [2]; 93 % of control under setting [3]; 154 % of control (dose: 266.0 mg/kg/injection, schedule: Q01DX001 (ip), vehicle: saline with Tween-80). For the same compound, for the setting “dose: 400.0 mg/kg/injection, schedule: Q01DX001 (ip), vehicle: saline with Tween-80”, the T/C is 118 % of control.
Consider `CC(=O)Oc1c(Br)c(-c2c(C)cc(C)c(Br)c2C)c(OC(C)=O)c(Br)c1-c1c(C)cc(C)c(Br)c1C`, for which the T/C by setting is: under setting [4], 97 % of control; under setting [5], 113 % of control; under setting [6], 96 % of control; under setting [7], 95 % of control; under setting [8], 97 % of control; under setting [9], 101 % of control.
Consider `Cn1c2ccccc2c(=O)c2c(O)cc3c(c21)C=CC(C)(C)O3`, for which the T/C under setting [10] is 98 % of control, the T/C under setting [11] was 90 % of control, the T/C under setting [12] was 88 % of control and the T/C under setting [13] is 88 % of control.
Regarding `O=C(CF)NC1C(O)OC(CO)C(O)C1O` (stereo unspecified), the T/C is 107 % of control (dose: 100.0 mg/kg/injection, schedule: Q01DX001 (ip), vehicle: saline) and 112 % of control (dose: 200.0 mg/kg/injection, schedule: Q01DX001 (ip), vehicle: saline).
Take `O=C(NC(=S)Nc1cccc(F)c1)c1cccc([N+](=O)[O-])c1`: the T/C by setting is: under setting [1], 98 % of control; under setting [14], 94 % of control and 95 % of control; under setting [15], 101 % of control and 111 % of control; under setting [16], 98 % of control; under setting [2], 93 % of control; under setting [3], 98 % of control and 90 % of control. The T/C runs as follows: under setting [17], 92 % of control and 96 % of control; under setting [18], 102 % of control; under setting [19], 92 % of control and 94 % of control; under setting [20], 101 % of control and 103 % of control; under setting [21], 101 % of control.
In the case of `Cc1ccc(S(=O)(=O)OCCN(CCOS(=O)(=O)c2ccc(C)cc2)c2cccc(Cl)c2)cc1`, the T/C is 98 % of control under setting [10], 98 % of control under setting [11], 109 % of control under setting [12] and 114 % of control under setting [13].
With `CN=C(NC)c1ccc(Cl)c(Cl)c1`, the T/C was 96 % of control (dose: 100.0 mg/kg/injection, schedule: Q04DX003 (ip), vehicle: Klucel (hydroxypropylcellulose) (HPC)) and 98 % of control (dose: 200.0 mg/kg/injection, schedule: Q04DX003 (ip), vehicle: Klucel (hydroxypropylcellulose) (HPC)).
Consider `CCCCCCCC/C=C/CCCCCCCCNC(=O)NCCCl`, for which the T/C under setting [14] is 95 % of control; the T/C under setting [16] is 87 % of control; the T/C under setting [3] is 92 % of control; the T/C under setting [18] is 87 % of control; the T/C under setting [21] was 94 % of control.
Regarding `CC1CC(Cc2ccccc2CC2CC(C)OC2=O)C(=O)O1` (stereo unspecified), the T/C under setting [5] is 90 % of control, the T/C under setting [7] is 89 % of control and the T/C under setting [9] is 89 % of control.
For the compound `COc1ccc(CN(C)C)c(C(O)c2ccccc2)c1` (stereo unspecified), the T/C under setting [10] is 101 % of control, the T/C under setting [11] is 103 % of control and the T/C under setting [12] was 103 % of control.
As for `CCCC(=O)NC1CCC(CC2CCCCC2)CC1` (stereo unspecified), the T/C is, setting by setting: (dose: 50.0 mg/kg/injection, schedule: Q01DX009 (ip), vehicle: other) 92 % of control; (dose: 100.0 mg/kg/injection, schedule: Q01DX009 (ip), vehicle: other) 106 % of control; (dose: 100.0 mg/kg/injection, schedule: Q04DX003 (ip), vehicle: other) 100 % of control; (dose: 200.0 mg/kg/injection, schedule: Q01DX009 (ip), vehicle: other) 98 % of control; (dose: 200.0 mg/kg/injection, schedule: Q04DX003 (ip), vehicle: other) 100 % of control.
With `CC(C)(C)Sc1nc2ccccc2s1`, the T/C by setting is: (dose: 25.0 mg/kg/injection, schedule: Q04DX002 (ip), vehicle: saline with Tween-80) 93 % of control; (dose: 50.0 mg/kg/injection, schedule: Q04DX002 (ip), vehicle: saline with Tween-80) 93 % of control; under setting [15], 96 % of control; under setting [17], 105 % of control and 119 % of control; under setting [20], 107 % of control.
Turning to `NC(=O)NC(=O)/C=C/C(=O)O`, the T/C was 100 % of control (dose: 50.0 mg/kg/injection, schedule: Q01DX009 (ip), vehicle: saline with Tween-80); 94 % of control under setting [14]; 92 % of control under setting [16]; 90 % of control under setting [18].
In the case of `CC1(C)C(O)(C#N)C(C)(C)C1(O)C#N` (stereo unspecified), the T/C is 107 % of control (dose: 3.13 mg/kg/injection, schedule: Q01DX009 (ip), vehicle: saline); 115 % of control (dose: 6.25 mg/kg/injection, schedule: Q01DX009 (ip), vehicle: saline); 105 % of control (dose: 12.5 mg/kg/injection, schedule: Q01DX009 (ip), vehicle: saline).
Take `N#CC(C#N)=C(C#N)c1cccn1Cc1ccccc1`: the T/C runs as follows: (dose: 87.5 mg/kg/injection, schedule: Q01DX009 (ip), vehicle: carboxymethylcellulose (CMC)) 96 % of control; (dose: 175.0 mg/kg/injection, schedule: Q01DX009 (ip), vehicle: carboxymethylcellulose (CMC)) 95 % of control; (dose: 350.0 mg/kg/injection, schedule: Q01DX009 (ip), vehicle: carboxymethylcellulose (CMC)) 90 % of control.
Take `COc1ccc(OC)c(Br)c1`: the T/C reads like this: under setting [14], 102 % of control; under setting [16], 100 % of control; under setting [3], 107 % of control; under setting [18], 100 % of control; under setting [19], 110 % of control; under setting [21], 104 % of control.
As for `[N-]=[N+]=CC(=O)NCC(N)=O`, the T/C by setting is: (dose: 125.0 mg/kg/injection, schedule: Q01DX009 (ip), vehicle: other) 110 % of control; (dose: 125.0 mg/kg/injection, schedule: Q01DX009 (sc), vehicle: other) 91 % of control; (dose: 222.0 mg/kg/injection, schedule: Q01DX Z (ip), vehicle: water) 121 % of control; (dose: 250.0 mg/kg/injection, schedule: Q01DX009 (sc), vehicle: other) 97 % of control; (dose: 500.0 mg/kg/injection, schedule: Q01DX009 (sc), vehicle: other) 103 % of control; (dose: 750.0 mg/kg/injection, schedule: Q01DX009 (sc), vehicle: other) 97 % of control. Moreover, the T/C (dose: 750.0 mg/kg/injection, schedule: Q01DX Z (ip), vehicle: water) was 104 % of control.
For the compound `NS(=O)(=O)c1ccc(N=Nc2ncc[nH]2)cc1`, the T/C runs as follows: (dose: 50.0 mg/kg/injection, schedule: Q01DX009 (ip), vehicle: Klucel (hydroxypropylcellulose) (HPC)) 94 % of control; under setting [4], 94 % of control; under setting [6], 94 % of control.
As to `CCCCC(CC)CNCCOC(=O)c1ccc(N)cc1` (stereo unspecified), the T/C (dose: 75.0 mg/kg/injection, schedule: Q01DX001 (ip), vehicle: other) was 92 % of control and the T/C (dose: 150.0 mg/kg/injection, schedule: Q01DX001 (ip), vehicle: other) is 100 % of control.
As for `Cc1ccc(N=Nc2ccc(C)cc2NC(=O)c2cccc3ccccc23)cc1`, the T/C is 92 % of control under setting [4]; 104 % of control (dose: 100.0 mg/kg/injection, schedule: Q04DX002 (ip), vehicle: Klucel (hydroxypropylcellulose) (HPC)); 100 % of control under setting [6]; 96 % of control (dose: 200.0 mg/kg/injection, schedule: Q04DX002 (ip), vehicle: Klucel (hydroxypropylcellulose) (HPC)); 95 % of control under setting [8]; 93 % of control (dose: 400.0 mg/kg/injection, schedule: Q04DX002 (ip), vehicle: Klucel (hydroxypropylcellulose) (HPC)).
